Laboratory results taken from ChEMBL document CHEMBL1137049 (Bioorg Med Chem Lett, 2004).

Tests used:
Histamine H4 receptor = Histamine H4 receptor (Homo sapiens, UniProt Q9H3N8); assay: Binding affinity towards human histamine H4 receptor was determined by [3H]Na-methylhistamine binding to SK-N-MC cell membranes
Histamine H3 receptor [1] = target: T1, Histamine H3 receptor (Homo sapiens, UniProt Q9Y5N1); assay: Intrinsic activity against human histamine H3 receptor
Histamine H3 receptor [2] = target: T1, Histamine H3 receptor; assay: Binding affinity towards human histamine H3 receptor was determined by [3H]Na-methylhistamine binding to SK-N-MC cell membranes
Histamine H3 receptor [3] = target: T1, Histamine H3 receptor; assay: Effective concentration required against human histamine H3 receptor was determined by the inhibition of the cAMP stimulated beta-galactosidase transcription in SK-N-MC cells; assay type: cell-based

T1 sequence (Q9Y5N1 whole entry): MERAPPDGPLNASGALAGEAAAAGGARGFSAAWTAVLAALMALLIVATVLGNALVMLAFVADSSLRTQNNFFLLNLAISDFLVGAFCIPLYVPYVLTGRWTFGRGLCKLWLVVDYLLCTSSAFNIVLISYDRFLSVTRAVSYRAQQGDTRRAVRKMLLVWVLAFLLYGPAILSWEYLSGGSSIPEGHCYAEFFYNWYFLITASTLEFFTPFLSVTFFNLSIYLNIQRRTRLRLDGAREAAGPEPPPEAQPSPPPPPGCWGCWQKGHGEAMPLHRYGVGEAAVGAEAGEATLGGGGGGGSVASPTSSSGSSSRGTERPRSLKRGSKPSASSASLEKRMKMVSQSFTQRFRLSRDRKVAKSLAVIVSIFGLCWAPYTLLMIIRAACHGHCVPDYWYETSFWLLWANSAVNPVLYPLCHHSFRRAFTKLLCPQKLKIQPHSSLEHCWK
Sequence of Histamine H4 receptor (Q9H3N8 whole entry): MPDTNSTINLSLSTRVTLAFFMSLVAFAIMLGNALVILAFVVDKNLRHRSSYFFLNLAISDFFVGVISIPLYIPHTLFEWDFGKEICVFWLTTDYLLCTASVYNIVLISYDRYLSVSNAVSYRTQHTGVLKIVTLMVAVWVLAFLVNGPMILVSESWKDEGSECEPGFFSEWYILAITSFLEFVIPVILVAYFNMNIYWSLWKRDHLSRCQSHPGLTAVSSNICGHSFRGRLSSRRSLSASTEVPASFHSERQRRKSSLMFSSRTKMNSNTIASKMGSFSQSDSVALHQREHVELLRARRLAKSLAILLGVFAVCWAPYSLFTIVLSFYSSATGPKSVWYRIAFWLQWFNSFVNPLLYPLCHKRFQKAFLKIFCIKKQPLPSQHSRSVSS

| SMILES | Ki (Histamine H4 receptor) | Intrinsic activity (Histamine H3 receptor [1]) | Ki (Histamine H3 receptor [2]) | EC50 (Histamine H3 receptor [3]) |
| --- | --- | --- | --- | --- |
| CN(C)CCN(C)C(=O)c1cc2cc(Cl)ccc2[nH]1 | 25.1 µM | – | – | – |
| CN(C)CCNC(=O)c1cc2cc(Cl)ccc2[nH]1 | 3.16 µM | 0 | 5.01 µM | – |
| CN1CCN(C(=O)c2cc3cc(Br)ccc3[nH]2)CC1 | 0.0316 µM | -0.7 | 3.16 µM | 1.58 µM |
| CN(C)CCN(C)C(=O)c1nc2cc(Cl)ccc2[nH]1 | 25.1 µM | – | – | – |
| CN(C)CCNC(=O)c1nc2cc(Cl)ccc2[nH]1 | 1 µM | -0.5 | 25.1 µM | 3.16 µM |
| O=C(c1cc2cc(Cl)ccc2[nH]1)N1CCOCC1 | > 100 µM | – | – | – |
| CN1CCN(NC(=O)c2nc3cc(Cl)ccc3[nH]2)CC1 | > 100 µM | – | – | – |
| CN1CCN(C(=O)c2cc3cc(Cl)ccc3[nH]2)CC1 [JNJ-7777120] | – | -0.7 | 2 µM | 1 µM |
| CN1CCN(C(=O)c2nc3ccc(Cl)cc3[nH]2)CC1 | – | -1 | – | – |
| CN1CCN(C(=O)c2cc3cc(I)ccc3[nH]2)CC1 | 0.0631 µM | -0.8 | 2.51 µM | 3.16 µM |
| CN(C)c1cccc(-c2nc3cc(Cl)ccc3[nH]2)c1 | > 100 µM | – | – | – |
| CN1CCC(C(=O)c2cc3cc(Cl)ccc3[nH]2)CC1 | 0.2 µM | -0.5 | 3.16 µM | 1 µM |
| CN1CCN(C(=O)c2nc3cc(Cl)ccc3[nH]2)CC1 | 0.0794 µM | – | 3.98 µM | 3.16 µM |
| O=C(c1cc2cc(Cl)ccc2[nH]1)N1CCCCC1 | 7.94 µM | -0.6 | 6.31 µM | 3.16 µM |
| CN1CCN(NC(=O)c2cc3cc(Cl)ccc3[nH]2)CC1 | 25.1 µM | – | – | – |
| CN(C)CCCNC(=O)c1cc2cc(Cl)ccc2[nH]1 | > 100 µM | – | – | – |
| CC(=O)Nc1nc2cc(Cl)ccc2[nH]1 | > 100 µM | – | – | – |
| CN1CCC(C(O)c2cc3cc(Cl)ccc3[nH]2)CC1 (stereo not drawn) | 5.01 µM | -0.5 | 1.58 µM | 1 µM |
| CN1CCN(C(=O)Nc2nc3cc(Cl)ccc3[nH]2)CC1 | 20 µM | – | – | – |
